Assay results from patent US7262269B2, “Method for screening combinational bead library; ligands for cancer cells” (The Regents of University of California, priority 2001, dated 2007).

How the values were obtained:
[1] = system: non-small-cell lung cancer cell line, A549; assay: cell-growth-on-bead assay, A549; type: cell-based, human; details: peptide resynthesized on beads, rescreened with A549 cells
Description: The cell-growth-on-bead assay includes the following steps. A one-bead-one-compound combinatorial library is prepared. The library is preferably synthesized using the “split synthesis” approach described in Lam et al., “A new type of synthetic peptide library,” 82-84. The compounds of the library may be small molecules, peptides, or other types of molecules. An example of a suitable library is a peptide library containing cXXXXXXc peptides, where “c” is D-cysteine which provides intramolecular cyclization by disulfide bonding, and “X” is any L, D, unnatural, or modified amino acid. A suitable solid phase support, such as beads or discs made of polystyrene, agarose, acrylamide, glass, plastic, or paramagnetic substances, is used. Polystyrene beads have been found satisfactory. A standard synthetic solid phase peptide synthesis method, such as fluorenylmethyoxycarbonyl (Fmoc) chemistry or t-butyloxycarbonyl (Boc) chemistry, is used. […]
The chemical structure of the compound (i.e. ligand) on each isolated positive bead 14 is then determined. If the combinatorial library used was a peptide library, then the amino acid sequence of the ligand is preferably determined with an automated protein sequencer, such as the Procise 494 (Applied Biosystems, Foster City, Calif.). Alternatively, the peptide can be released via a cleavable linker and the amino acid sequence determined by mass spectroscopy. […]

[2] = system: non-malignant bronchoepithelial cell line, HBE-1; assay: cell-growth-on-bead assay, HBE-1; type: cell-based; details: HBE-1 cells
Description: The ratio of cells to beads is preferably about 10:1, but can range from about 1:1 to 100:1. The suspension of cells 10 and beads 12 is mixed gently for sufficient time to assure contact of beads 12 with suspended cells 10. The culture plates are incubated in a tissue culture incubator at about 4° C. to about 37° C., preferably 37° C., for a period of about 24 to about 72 hours. The suspension of cells 10 and beads 12 may be kept still or mixed, either continuously or intermittently, during the incubation period.
After the incubation period, beads 12 are observed under a dissecting microscope. […] These beads 14 (referred to as “positive” beads) are removed from the culture plates. A tetrazolium dye that stains live, but not dead, cells can be used to facilitate the identification and removal of the positive beads. If a dye is used, all of the beads are removed after the incubation period and resuspended in fresh medium in new culture plates. The dye is added. The plates are then incubated in a tissue culture incubator at 25° C. to 37° C. for about one to four hours. Live cells 10 convert the dye to a colored metabolite, which results in beads 14 with attached cells appearing colored, allowing them to be easily distinguished from beads 16 without attached cells, which appear colorless, as shown in FIG. 1E. Other dyes that stain live cells can also be used. […]

Q: Which “beads with this sequence exhibiting cell attachment and growth on their surfaces” value [1] does the source give for cNGRGEQc here?
A: Its value is “Virtually all”.

Q: What about the “peptide beads on which cell growth was observed” value [2] of the same substance?
A: The value was 10%.
